# Columns and labels:
# [1] = Conditioned shock avoidance (SIDR), antipsychotic; type: in vivo, male Long-Evans rats; settings: Rattus norvegicus; read-out: ED50 in the SIDR protocol
# Method: (§1) Representative compounds of the invention (identified in the Examples) were also tested for antipsychotic activity according to the following protocol (SIDR or SIDSM). The noted compound has the indicated ED50 values (mg/kg) and is considered active as an antipsychotic agent in the test procedure.
# (§2) Mature male Long-Evans rats (SIDR) or squirrel-monkeys (SIDSM) are conditioned to push a lever in order to avoid a painful electric footshock. If the animals fails to push the lever, he receives a shock every ten seconds until the lever is pushed. Shocks can be terminated by pushing the lever. Thereafter, as long as the lever is pushed at least once every 20 seconds, there will be no shock.
# (§3) Each animal acts as its own control; one weekly session is used to establish baseline behavior and another session later in the week is used as a drug session. Once patterns of avoidance are established, the effects of standard and unknown compounds are studied.
# [2] = Conditioned shock avoidance (SIDSM), antipsychotic; type: in vivo, squirrel-monkeys; settings: Primates; squirrel-monkey; read-out: ED50 in the SIDSM protocol
# Method: as §1, §2, §3
smiles,measurement,setting,value
"OC[C@H]1O[C@@H](n2cnc3c(NCC4(c5ccccc5)CC4)ncnc32)[C@H](O)[C@@H]1O [Example 1, N6-((1-Phenylcyclopropyl)methyl)adenosine]",ED50,[1],0.55 mg/kg
same,ED50,[2],0.52 mg/kg

# — US4755594A, “N^6 -substituted adenosines” (Warner-Lambert Company, priority 1986, dated 1988)
